Like-named read-outs stand apart in the source and are kept apart here.
Tests used:
[1] = In vitro ARG, single concentration, WT mouse brain sections; type: binding; conditions: 0.5 nM
Protocol: (§1) Twenty µm-thick sections were prepared from brains of disease mouse models and WT mice or human post-mortem brain samples by using a cryostat, mounted on superfrost slides and stored at -80 °C for a maximum of 2 weeks. On the day of the experiment, slides were adapted to room temperature for 30 min and then equilibrated by immersion into assay buffer (50 mM Tris–HCl pH 7.4; 120 mM NaCl; 5 mM KCl; 2 mM CaCl2; 1 mM MgCl2) for 20 min at room temperature.
Radioligand solutions were prepared in assay buffer. Optimal radioligand concentrations were determined in advance based on signal-to-background ratio obtained in mouse or human brain tissue. The solutions were mixed in a Coplin jar (Sigma, S5516-6EA) by gently shaking at 175 rpm for 10 min at room temperature. Sections were incubated by immersion into assay buffer containing either only radioligand (total binding or TB) or radioligand plus 10 µM of unlabeled compound (non-specific binding or NSB) for 60 min at room temperature. Afterwards slides were washed three times for 10 min with ice-cold washing buffer (50 mM Tris–HCl (pH 7.4)) at 4 °C and dipped for three seconds in ice-cold distilled water to remove buffer salts. The slides were dried for 3 h at 30 °C and exposed for 96 h to a Tritium Phosphor Screen (GE Healthcare, Fuji BAS-TR 2025 E) Stored radiation energy on the screen was scanned using a Phosphorimager (GE Healthcare, Typhoon FLA 7000). Densitometric data analysis of radioligand binding was performed using the MCID Analysis 7.1 software (Interfocus Imaging Ltd.). Radioisotope concentration standards (American Radiolabeled Chemicals, ART 0123C and ART 0123B) were exposed with each specimen to enable conversion of density values into tissue-equivalent ligand concentrations (e.g., fmol/mg tissue). A standard curve was created to relate the system´s internal relative optical density measurement (ROD; an inverse logarithmic function of gray level values) to the set of standard values (e.g., isotope concentration). The standard´s isotope concentration (e.g., nCi/mg) is therefore converted into tissue-equivalent ligand concentrations (e.g., fmol/mg tissue) by referring to the radioligand´s specific activity (e.g., Ci/mmol) and including decay-correction. After phosphor screen exposure the human brain sections were stained for 4 min with 0.1% toluidine blue dye solution (Sigma-Aldrich) and rinsed twice in distilled water. To differentiate gray and white matter, the slides were decolorized with 70% ethanol (Merck) for 2–5 min followed by rinse in distilled water. Gray matter appears as gray color and white matter as bluish.

[2] = target: phospho-Tau tangles (AT8 antibody) (Homo sapiens, UniProt P10636); test: HR ARG co-registration with AT8 antibody, human AD brain sections; type: binding; conditions: 10 nM CHDI-180, 10 nM CHDI-626, 0.1 nM PiB, 1 nM T808
phospho-Tau tangles (AT8 antibody), sequence (P10636 623-695 limits assumed): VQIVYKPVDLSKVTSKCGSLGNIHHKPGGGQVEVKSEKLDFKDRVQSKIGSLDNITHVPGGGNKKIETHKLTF

aggregated ataxin 1 = test: ARG, Sca1 mouse models; type: binding
Protocol: as §1
Radioligand solutions were prepared in assay buffer. Optimal radioligand concentrations were determined in advance based on signal-to-background ratio obtained in mouse or human brain tissue. The solutions were mixed in a Coplin jar (Sigma, S5516-6EA) by gently shaking at 175 rpm for 10 min at room temperature. Sections were incubated by immersion into assay buffer containing either only radioligand (total binding or TB) or radioligand plus 10 µM of unlabeled compound (non-specific binding or NSB) for 60 min at room temperature. Afterwards slides were washed three times for 10 min with ice-cold washing buffer (50 mM Tris–HCl (pH 7.4)) at 4 °C and dipped for three seconds in ice-cold distilled water to remove buffer salts. […]

R6/2 brain homogenates = test: RBA with R6/2 brain homogenates; type: binding, mouse; conditions: data not shown
Protocol: For RBA in vitro binding assays, brain tissue was sliced (50 µm), weighed and homogenized in PBS (Gibco, 14190-94), 0.1% BSA with a glass pestle (10 strokes) at a concentration of 12–15 mg wet tissue per mL buffer. The crude homogenate concentration was then adjusted to 10 mg/mL (wet tissue) and stored as single-use aliquots at -80 °C.
For saturation binding experiments, aggregate lysate preparation and final concentration in the assay, assay buffer, incubation times and plate processing were identical to the competition format. Radioligand was titrated up to 100 nM. Raw cpm were converted into nM using a calibration line of total added radioligand without washing and filtering (spiked onto the filter plate and dried) (e.g., X) and normalized to the concentration of protein (e.g., Y) to finally obtain […] (e.g., X/Y). Specific binding (SB) was calculated as full binding minus full competition (in the presence of excess unlabeled ligand) and a hyperbolic mono-phasic fit was applied using GraphPad Prism to determine Kd and Bmax.

[3] = target: beta amyloid plaques (6E10 antibody) (Homo sapiens, UniProt P05067); test: HR ARG co-registration with 6E10 antibody, human AD brain sections; type: binding; conditions: 10 nM CHDI-180, 10 nM CHDI-626, 0.1 nM PiB, 1 nM T808
beta amyloid plaques (6E10 antibody), sequence (P05067 672-713 limits assumed): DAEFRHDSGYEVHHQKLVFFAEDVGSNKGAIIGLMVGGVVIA

Exon1-Q46 aggregates = target: T1, Exon1-Q46 aggregates (Homo sapiens, UniProt P42858, INS38QQQQQQQQQQQQQQQQQQQQQQQQQ); test: RBA competition binding against tritiated 3, Exon1-Q46 aggregates
T1 construct: MBP-HTT(1-89)Q46-His(6x); MBP (N, cleaved yes); made in house; host or cells: E. coli BL21 (DE3)
T1 sequence (P42858 with tags, fused parts or gaps with the stated changes): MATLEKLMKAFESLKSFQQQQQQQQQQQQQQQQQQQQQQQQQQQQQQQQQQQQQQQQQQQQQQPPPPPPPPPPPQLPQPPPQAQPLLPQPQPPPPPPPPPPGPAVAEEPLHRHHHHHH
Protocol: For the competition assay format, Q46 or Exon1-Q46 aggregates at 1 µM (sample volume 150 µL) were pre-incubated in a 96-well round bottom plate (Corning, #3365) for 20 min with test compounds at room temperature (assay buffer 50 mM Tris–HCl pH 8.0, 150 mM NaCl). […] Radioligand 3 at 0.3 nM was added and incubated for 1 h at 37 °C.
Samples were then transferred onto a 96-well GF/B filter plate (Perkin Elmer, #6005177) using a Filtermate Harvester, aspirated by vacuum and wells washed twice with 200 µL PBS. After drying the filter plates for 1 h at 55 °C the back of the plate was sealed with aluminum cover and 30 µL of scintillation fluid (Perkin Elmer, #6013641) per well was added. The tops of the plates were sealed, and the plates were incubated for 15 min in the dark and counted in a TopCount or MicroBeta2 reader (both Perkin Elmer).
Raw sample data collected as counts per minute (cpm) were normalized towards assay controls: 0% inhibition = radioligand + protein + vehicle, 100% inhibition = radioligand + protein + 1 µM unlabeled ligand. A 4-parameter […] fit was applied to generate IC50 values.

COc1ccc(COc2ccc3oc(-c4ccc(=O)n(C)n4)nc3c2)nc1 [CHDI-180]
NSB ([1]; 3 month WT, CTX): 0.6 ± 0.5 fmol/mg | SB ([1]; 3 month WT, CTX): 1.3 ± 1.0 fmol/mg | TB ([1]; 3 month WT, CTX): 1.9 ± 0.5 fmol/mg | NSB ([1]; 3 month WT, HPC): 0.5 ± 0.6 fmol/mg | SB ([1]; 3 month WT, HPC): 1.6 ± 0.6 fmol/mg | TB ([1]; 3 month WT, HPC): 2.0 ± 0.4 fmol/mg | NSB ([1]; 3 month WT, STR): 0.7 ± 0.6 fmol/mg | SB ([1]; 3 month WT, STR): 1.1 ± 0.4 fmol/mg | TB ([1]; 3 month WT, STR): 1.8 ± 0.3 fmol/mg | NSB ([1]; 6 month WT, CTX): 0.5 ± 0.6 fmol/mg | SB ([1]; 6 month WT, CTX): 1.2 ± 0.5 fmol/mg | TB ([1]; 6 month WT, CTX): 1.8 ± 0.1 fmol/mg | NSB ([1]; 6 month WT, HPC): 0.6 ± 0.8 fmol/mg | SB ([1]; 6 month WT, HPC): 1.5 ± 0.1 fmol/mg | TB ([1]; 6 month WT, HPC): 2.2 ± 0.7 fmol/mg | NSB ([1]; 6 month WT, STR): 0.4 ± 0.5 fmol/mg | SB ([1]; 6 month WT, STR): 1.6 ± 0.1 fmol/mg | TB ([1]; 6 month WT, STR): 2.0 ± 0.6 fmol/mg | NSB ([1]; 9 month WT, CTX): 0.1 ± 0.2 fmol/mg | SB ([1]; 9 month WT, CTX): 1.2 ± 0.2 fmol/mg | TB ([1]; 9 month WT, CTX): 1.3 ± 0.4 fmol/mg | NSB ([1]; 9 month WT, HPC): 0.6 ± 0.8 fmol/mg | SB ([1]; 9 month WT, HPC): 1.1 ± 0.5 fmol/mg | TB ([1]; 9 month WT, HPC): 1.8 ± 0.5 fmol/mg | NSB ([1]; 9 month WT, STR): 0.0 ± 0.0 fmol/mg | SB ([1]; 9 month WT, STR): 1.6 ± 0.1 fmol/mg | TB ([1]; 9 month WT, STR): 1.6 ± 0.1 fmol/mg | NSB ([1]; 12 month WT, CTX): 0.1 ± 0.1 fmol/mg | SB ([1]; 12 month WT, CTX): 1.2 ± 0.2 fmol/mg | TB ([1]; 12 month WT, CTX): 1.3 ± 0.3 fmol/mg | NSB ([1]; 12 month WT, HPC): 0.0 ± 0.1 fmol/mg | SB ([1]; 12 month WT, HPC): 1.6 ± 0.5 fmol/mg | TB ([1]; 12 month WT, HPC): 1.6 ± 0.4 fmol/mg | NSB ([1]; 12 month WT, STR): 0.2 ± 0.2 fmol/mg | SB ([1]; 12 month WT, STR): 1.2 ± 0.2 fmol/mg | TB ([1]; 12 month WT, STR): 1.3 ± 0.0 fmol/mg | co-registration with AT8-positive phospho-Tau immunoreactivity [2]: did not co-register | binding to aggregated ataxin 1 (aggregated ataxin 1; 1 nM radioligand, PcP2-82Q and SCA154Q/2Q mice): bound to aggregated ataxin 1 | ARG signals compared to the R6/2 HD model (aggregated ataxin 1; brain sections of 2 Sca mouse models): much lower | binding signal (R6/2 brain homogenates): no appropriate binding signal | co-registration with 6E10-positive beta amyloid plaques [3]: low density binding | IC50 (Exon1-Q46 aggregates; 0.3 nM tritiated 3 as radioligand, 1 µM aggregates, mean ± SD, read-out: IC50 Exon1-Q46): 1.3 ± 0.7 nM | Hill Slope (Exon1-Q46 aggregates; against tritiated 3, representative single experiment (Fig. 2B)): 0.89 | IC50 (Exon1-Q46 aggregates; against tritiated 3, representative single experiment (Fig. 2B), read-out: IC50): 1.4 nM

Source: paper PMC8429736, “Pharmacological characterization of mutant huntingtin aggregate-directed PET imaging tracer candidates” (Scientific Reports, 2021)
